According to US6022307A, “Substituted dibenzothiophenes having antiangiogenic activity” (American Cyanamid Company, priority 1999, dated 2000):
Counter-ions that a name gives are not always drawn. One block for each molecule: values may come before it.

Tests used:
[1] = tested on: VEGF 165-induced vascular permeability; experiment: Inhibition of Vascular Permeability Assay (Miles Assay); type: in vivo, BALB/c female mice; settings: 100 mg/kg, PO
Experimental: Inhibition of Vascular Permeability Assay (Miles Assay) This assay was performed using BALB/c female mice (Charles River, Wilmington, Mass.). Both sides of the animals were shaved between 24 and 48 hours before the start of the assay. There were 10 animals per experimental group. […] One half hour later the animals were sacrificed by CO2 inhalation. […] Data was statistically analyzed via Student-t-test. A p-value (p≤0.05) indicates a statistically significant difference between the area of vascular permeability of the vehicle control verses the experimental group. Data was statistically analyzed via Student-t-test of Log Relative Area of Permiability. A p-value (p≤0.05) indicates a statistically significant reduction in permeability of Treated Group, compared to Placebo Control.

[2] = tested on: KDR
Experimental: Inhibition of Binding of VEGF 165 to KDR & Flt-1 Receptors as Measured by SPA Assay
Preparation of conditioned media containing the KDR-Fc soluble VEGF receptor.:
Human 293KDR2 cells, which secrete a soluble KDR-Fc fusion protein, were grown in Dulbecco's Modified Eagle Medium supplemented with 10% fetal calf serum, 2 mM glutamine, 10 units/ml penicillin G sulfate, 10 μg/ml streptomycin sulfate and 175 μg/ml geneticin (G418) sulfate. Cells were plated at a density of 10^6 cells/100 mm dish and incubated at 37° C. in a humidified atmosphere containing 95% air and 5% CO2. After 10 days, conditioned medium was collected and centrifuged at 15,000 rpm for 15 min to remove dead cells. A total of 0.1 volume of 1.15% gelatin and 0.02 volume of 1M HEPES buffer (pH 8) was added. Leupeptin and pepstatin A were added to 1 μg/ml each.
Preparation of ^125 I-labelled VEGF ligand:
Recombinant human ^125 T-labelled VEGF 165 was purchased from Amersham (3,800 cpm/fmol). ^125,-labelled VEGF was diluted in DMEM supplemented with gelatin (0.15%) and HEPES buffer (20 mM) to a final concentration of 40,000 cpm/25 μl.
Preparation of SPA beads:
SPA PVT antibody-binding beads were purchased from Amersham. Each bottle of SPA beads (500 mg) was reconstituted in 25 ml of DMEM supplemented with gelatin (0.15%) and HEPES buffer (20 mM). The bottle contents were well mixed (15 min with a stir bar at room temperature).
SPA assays were performed in flat-bottom polystyrene 96 well microtitre plates.
(a) Pipette 50 μl of SPA beads to well.
(b) Pipette 25 μl of conditioned medium to well.
(d) Pipette 25 μl of ^125 J-VEGF 165 to well.
The appropriate control wells were set up to measure non-specific binding, solvent effect, etc. The assays were run in duplicate or triplicate wells. Plates were sealed and incubate at room temperature without shaking for 5 to 20 hours. Plates were then counted in a Packard TopCount microtitre plate liquid scintillation counter.
A typical assay gave 3,000 to 6,000 cpm bound. Background binding (measured in the presence of 100-fold molar excess of unlabelled VEGF 165) was typically 200 to 300 cpm bound. Compounds were tested at 30, 10, 3, 1, 0.3 and 0.1 μg/ml in DMSO. […] Half maximal binding was determined by the following equation:
s=maximal cpm bound in the absence of compound.
The IC50 values were determined graphically by the following procedure:
A graph was drawn plotting compound concentration (x-axis) versus cpm bound (y-axis).
The half maximal binding was calculated using the equation above.
A horizontal line (LINE A) was drawn which intersects the y-axis at the half maximal binding value.
A vertical line (LINE B) was drawn through the point where LINE A intersects the inhibition curve.
The point where LINE B intersects the x-axis was extrapolated from the graph to give the IC50 value.

[3] = tested on: corneal neovascularization; experiment: Corneal Neovascularization Model; type: in vivo, mice; settings: 100 mg/kg, PO, days 1-10
Experimental: Corneal Neovascularization Model
The sustained release preparations of angiogenic agents (ELVAX pellet) were prepared by solvent casting. […] The solvent was then evaporated, leaving the angiogenic agent in the polymeric matrix
Mice were anesthetized using a 1-1.5 ml/kg solution containing a mixture of 70% ketamine hydrochloride (100 mg/ml) and 30% xylazine (20 mg/ml). Using sterile surgical technique, an ELVAX pellet containing either basic FGF (100 ng) or VEGF (400 ng) was implanted into a previously dissected intrastromal corneal pocket 0.5 mm from the corneoscleral limbus. Following implantation the implantation site margins were reapposed and the eyes were treated with topical antibiotic ointment (bacitracin/neomycin/polymixin). On various days (between postoperative days 4 and 18) the extent of neovascularization was measured.
Neovascularization was monitored by measurements of new vessel growth within the previously avascular cornea. This parameter was obtained by measuring with calipers under microscopic magnification the length of the base of the neovascular bed at the limbus. The area of neovascularization,which is typically triangular, was calculated by dividing the product of the length of the vessel and the base length by two. Data was statistically analyzed via Student-t-test of Log Relative Reduction of Neovascularization. A p-value (p≤0.05) indicates a statistically significant reduction in neovascularization of Treated Group, compared to Placebo Control.

- IC50 [2]: 0.5 µg/mL
SMILES: O=Cc1ccc(/C=C/C(=O)Nc2cc3c(cc2S(=O)(=O)O)-c2cc(S(=O)(=O)O)c(NC(=O)/C=C/c4ccc(C=O)cc4)cc2S3(=O)=O)cc1 [Example 29, 3,7-Bis-[3-(4-formylphenyl)-acryloylamino]-5,5-dioxo-5H-5^6-dibenzothiophene-2,8-disulfonic acid, disodium salt]
- % Control ([1]; 4 hr prior to VEGF): 81%
- Lesion Area (measured area of vascular permeability) ([1]; 4 hr prior to VEGF): 76.5 mm^2

SMILES: COc1ccc(C=CC(=O)Nc2cc3sc4cc(NC(=O)C=Cc5ccc(OC)c(OC)c5Cl)c(C(=O)[O-])cc4c3cc2C(=O)[O-])c(Cl)c1OC.[Na+].[Na+]
- Inhibition of Corneal Neovascularization ([3]; Day 4): 11%
- Inhibition of Corneal Neovascularization ([3]; Day 8): 24%
- Inhibition of Corneal Neovascularization ([3]; Day 11): 29%
- Inhibition of Corneal Neovascularization ([3]; Day 13): 37%

- IC50 [2]: 1.5 µg/mL
SMILES: O=C(Nc1cc2sc3cc(NC(=O)c4cc5ccccc5s4)c(C(=O)O)cc3c2cc1C(=O)O)c1cc2ccccc2s1 [Example 2, 3,7-Bis-r(benzo[b]thiophene-2-carbonyl)amino]dibenzothiophene-2,8-dicarboxylic acid, disodium salt]
- % Control ([1]; 4 hr prior to VEGF): 57%
- Lesion Area (measured area of vascular permeability) ([1]; 4 hr prior to VEGF): 34.0 mm^2

- IC50 [2]: 0.5 µg/mL
SMILES: COc1ccc2cc(C(=O)Nc3cc4c(cc3S(=O)(=O)O)-c3cc(S(=O)(=O)O)c(NC(=O)c5cc6ccc(OC)cc6oc5=O)cc3S4(=O)=O)c(=O)oc2c1 [Example 47, 3,7-Bis-[(7-methoxy-2-oxo-benzopyran-3-yl)-carbonylamino]-5,5-dioxo-5H-5^6-dibenzothiophene-2,8-disulfonic acid, disodium salt]
- % Control ([1]; 4 hr prior to VEGF): 71%
- Lesion Area (measured area of vascular permeability) ([1]; 4 hr prior to VEGF): 32.8 mm^2

- IC50 [2]: 6 µg/mL
SMILES: CC(C)c1ccc(/C=C/C(=O)Nc2cc3c(cc2S(=O)(=O)O)-c2cc(S(=O)(=O)O)c(NC(=O)/C=C/c4ccc(C(C)C)cc4)cc2S3(=O)=O)cc1 [Example 36, 3,7-Bis-[3-(4-isopropylphenyl)-acryloylamino]-5,5-dioxo-5H-5^ -dibenzothiophene-2,8-disulfonic acid, disodium]

- IC50 [2]: 7 µg/mL
SMILES: O=C(Nc1cc2c(cc1S(=O)(=O)O)-c1cc(S(=O)(=O)O)c(NC(=O)c3ccc(S(=O)(=O)c4ccccc4)cc3)cc1S2(=O)=O)c1ccc(S(=O)(=O)c2ccccc2)cc1 [Example 52, 5,5-Dioxo-3,7-bis-(4-phenyl-sulfonylbenzoyl-amino)-5H-5^6-dibenzothiophene-2,8-disulfonic acid, disodium salt]

- IC50 [2]: 0.8 µg/mL
SMILES: O=C(C=Cc1ccc(-c2ccccc2)cc1)Nc1cc2c(cc1S(=O)(=O)O)-c1cc(S(=O)(=O)O)c(NC(=O)C=Cc3ccc(-c4ccccc4)cc3)cc1S2(=O)=O [Example 24, 3,7-Bis-[3-(4-phenylphenyl)acryloylamino]-5,5-dioxo-5H-5λ^6-dibenzothiophene-2,8-disulfonic acid, disodium salt]
- % Control ([1]; 1 hr prior to VEGF): 55%
- Lesion Area (measured area of vascular permeability) ([1]; 1 hr prior to VEGF): 25.8 mm^2
- % Control ([1]; 2 hr prior to VEGF): 80%
- Lesion Area (measured area of vascular permeability) ([1]; 2 hr prior to VEGF): 37.8 mm^2
- % Control ([1]; 4 hr prior to VEGF): 49%
- Lesion Area (measured area of vascular permeability) ([1]; 4 hr prior to VEGF): 23.1 mm^2

- IC50 [2]: 0.5 µg/mL
SMILES: O=C(Nc1ccc(C(=O)Nc2cc3c(cc2S(=O)(=O)O)-c2cc(S(=O)(=O)O)c(NC(=O)c4ccc(NC(=O)c5ccccc5)cc4)cc2S3(=O)=O)cc1)c1ccccc1 [Example 60, 3,7-Bis-(4-benzoylaminobenzoylamino)-5,5-dioxo-5H-5^6-dibenzothiophene-2,8-disulfonic acid, disodium salt]

SMILES: COc1ccc(C=CC(=O)Nc2cc3sc4cc(NC(=O)C=Cc5ccc(OC)c(OC)c5Cl)c(C(=O)[O-])cc4c3cc2C(=O)[O-])c(Cl)c1OC.[Na+].[Na+] [disodium salt]
- IC50 [2]: 3 µg/mL

SMILES: O=C(Nc1cc2sc3cc(NC(=O)c4cc5sccc5s4)c(C(=O)O)cc3c2cc1C(=O)O)c1cc2sccc2s1 [Example 5, 3,7-Bis[(thieno[3,2-b]thien-2-ylcarbonyl)amino]dibenzothiophene-2,8-dicarboxylic acid, disodium salt]
- IC50 [2]: 0.7 µg/mL

SMILES: CCOP(=O)(O)c1cc2c(cc1NC(=O)c1cc3ccccc3s1)S(=O)(=O)c1cc(NC(=O)c3cc4ccccc4s3)c(P(=O)(OCC)OCC)cc1-2 [Example 23b, [3,7-Bis[(benzo[b]thiophene-2-carbonyl)amino-8-(diethoxyphosphoryl)-5,5-dioxo-5H-5λ^6-dibenzothiophen-2-yl]phosphonic acid monoethyl ester, monosodium salt]
- IC50 [2]: 0.58 µg/mL

- IC50 [2]: 0.9 µg/mL
SMILES: COc1cc(/C=C/C(=O)Nc2cc3sc4cc(NC(=O)/C=C/c5cc(Br)c(O)c(OC)c5)c(C(=O)O)cc4c3cc2C(=O)O)cc(Br)c1O [Example 10, 3,7-Bis-[3-(3-bromo-4-hydroxy-5-methoxy-phenyl)acryloylamino]-dibenzothiophene-2,8-dicarboxylic Acid, disodium]

- IC50 [2]: 5 µg/mL
SMILES: O=C(/C=C/c1cccc(O)c1)Nc1cc2c(cc1S(=O)(=O)O)-c1cc(S(=O)(=O)O)c(NC(=O)/C=C/c3cccc(O)c3)cc1S2(=O)=O [Example 31, 3,7-Bis-[(E)-3-(3-hydroxy-phenyl)acryloylamino]-5,5-dioxo-5H-5^6-dibenzothiophene-2,8-disulfonic acid, disodium]

- IC50 [2]: 5 µg/mL
SMILES: COc1ccc(C(=O)Nc2cc3c(cc2S(=O)(=O)O)-c2cc(S(=O)(=O)O)c(NC(=O)c4ccc(OC)cc4OC)cc2S3(=O)=O)c(OC)c1 [Example 51, 3,7-Bis-(2,4-dimethoxybenzoyl-amino)-5,5-dioxo-5H-5^6-dibenzothiophene-2,8-disulfonic acid disodium salt]

- IC50 [2]: 0.6 µg/mL
SMILES: O=C(Nc1cc2c(cc1S(=O)(=O)O)-c1cc(S(=O)(=O)O)c(NC(=O)c3cc4ccccc4o3)cc1S2(=O)=O)c1cc2ccccc2o1 [Example 42, 3,7-Bis[(benzo[b]furan-2-carbonyl)amino]-5,5-dioxo-5H-5^6-dibenzothiophene-2,8-disulfonic acid, disodium salt]
- % Control ([1]; 2 hr prior to VEGF): 74%
- Lesion Area (measured area of vascular permeability) ([1]; 2 hr prior to VEGF): 40.0 mm^2
- Lesion Area (measured area of vascular permeability) ([1]; 2 hr prior to VEGF, disodium salt): 33.5 mm^2
- % Control ([1]; 4 hr prior to VEGF): 69%
- Lesion Area (measured area of vascular permeability) ([1]; 4 hr prior to VEGF): 31.1 mm^2

SMILES: CCOP(=O)(O)c1cc2c(cc1NC(=O)c1ccc3cc4ccccc4cc3c1)S(=O)(=O)c1cc(NC(=O)c3ccc4cc5ccccc5cc4c3)c(P(=O)(O)OCC)cc1-2 [Example 22, [3,7-Bis-[(anthracene-2-carbonyl)amino]-8-(ethoxyhydroxy-phosphoryl)-5,5-dioxo-5H-5^6-dibenzothiophen-2-yl]-phosphonic acid mono-ethyl ester, disodium salt]
- IC50 [2]: 0.06 µg/mL

- IC50 [2]: 5 µg/mL
SMILES: O=C(Nc1cc2c(cc1S(=O)(=O)O)-c1cc(S(=O)(=O)O)c(NC(=O)c3ccc4ccccc4c3)cc1S2(=O)=O)c1ccc2ccccc2c1 [Example 57, 3,7-Bis-[(naphthalen-2-yl)carbonylamino]-5,5-dioxo-5H-5^6-dibenzothiophene-2,8-disulfonic acid, disodium salt]

- IC50 [2]: 0.5 µg/mL
SMILES: O=C(/C=C/c1ccc(Br)cc1)Nc1cc2c(cc1S(=O)(=O)O)-c1cc(S(=O)(=O)O)c(NC(=O)/C=C/c3ccc(Br)cc3)cc1S2(=O)=O [Example 33, 3,7-Bis-[3-(4-bromophenyl)-acryloylamino]-5,5-dioxo-5H-5^6-dibenzothiophene-2,8-disulfonic acid, disodium salt]

- IC50 [2]: 5 µg/mL
SMILES: O=C(Nc1cc2c(cc1S(=O)(=O)O)-c1cc(S(=O)(=O)O)c(NC(=O)c3cnn(-c4ccccc4)n3)cc1S2(=O)=O)c1cnn(-c2ccccc2)n1 [Example 46, 5,5-Dioxo-3,7-bis-[(2-phenyl-2H-[1,2,3]triazole-4-carbonyl)amino]-5H-5^6-dibenzothiophene-2,8-disulfonic acid, disodium salt]

- IC50 [2]: 3.4 µg/mL
SMILES: O=C(/C=C/c1ccc(-c2ccccc2)cc1)Nc1cc2sc3cc(NC(=O)/C=C/c4ccc(-c5ccccc5)cc4)c(C(=O)O)cc3c2cc1C(=O)O [Example 9, 3,7-Bis-(3-biphenyl-4-ylacryloylamino)dibenzothiophene-2,8-dicarboxylic Acid, disodium salt]

SMILES: CCOP(=O)(O)c1cc2c(cc1NC(=O)c1ccc3c(c1)C(=O)c1ccccc1C3=O)S(=O)(=O)c1cc(NC(=O)c3ccc4c(c3)C(=O)c3ccccc3C4=O)c(P(=O)(O)OCC)cc1-2 [Example 21, [3,7-Bis-[9,10-dioxo-9,10-dihydroanthracene-2-carbonyl)amino]-8-(ethoxyhydroxy-phosphoryl)-5,5-dioxo-5H-5^6-dibenzothiophen-2-yl]phosphonic acid monoethyl ester, disodium salt]
- IC50 [2]: 0.2 µg/mL
